Laboratory results: ChEMBL document CHEMBL1121931, “Synthesis and pharmacological evaluation of conformationally restricted phenothiazine analogues” (J Med Chem, 1982)
Values belong to the molecule of their own block, whether it stands above or below them.

Tests used:
[1] = target: Dopamine receptor (Bos taurus, UniProt Q95136+P20288); test: Compound was tested for its ability to displace [3H]spiroperidol from dopamine receptor; format: protein assay
[2] = species: Rattus norvegicus; test: Compound's potency to increase the level of the dopamine metabolite DOPAC levels in male wistar rats at 1.15 ug/g dose; format: functional
[3] = species: Rattus norvegicus; test: Compound's potency to increase the level of the dopamine metabolite homovanillic acid (HVA), levels in male wistar rats at 0.63 ug/g dose; format: functional
[4] = species: Rattus norvegicus; test: Compound's potency to increase the level of the dopamine metabolite DOPAC levels in male wistar rats at 0.62 ug/g dose; format: functional
[5] = species: Rattus norvegicus; test: Compound's potency to increase the level of the dopamine metabolite homovanillic acid (HVA), levels in male wistar rats at 0.39 ug/g dose; format: functional
[6] = species: Rattus norvegicus; test: Compound's potency to increase the level of the dopamine metabolite homovanillic acid (HVA), levels in male wistar rats at 0.44 ug/g dose; format: functional
[7] = species: Rattus norvegicus; test: Compound's potency to increase the level of the dopamine metabolite DOPAC levels in male wistar rats at 0.73 ug/g dose; format: functional
[8] = species: Rattus norvegicus; test: Compound's potency to increase the level of the dopamine metabolite DOPAC levels in male wistar rats at 1.26 ug/g dose; format: functional
[9] = species: Rattus norvegicus; test: Compound's potency to increase the level of the dopamine metabolite homovanillic acid (HVA), levels in male wistar rats at 1.10 ug/g dose; format: functional
[10] = species: Rattus norvegicus; test: Compound's potency to increase the level of the dopamine metabolite DOPAC levels in male wistar rats at 0.6 ug/g dose; format: functional
[11] = species: Rattus norvegicus; test: Compound's potency to increase the level of the dopamine metabolite DOPAC levels in male wistar rats at 0.95 ug/g dose; format: functional
[12] = species: Rattus norvegicus; test: Compound's potency to increase the level of the dopamine metabolite homovanillic acid (HVA), levels in male wistar rats at 0.54 ug/g dose; format: functional

SMILES: CN(C)C1CCN2c3cc(Cl)ccc3Sc3cccc1c32 (stereo not given)
- Control [4]: 98%
- Control [5]: 88%

SMILES: CN(C)C1CCN2c3ccccc3Sc3ccc(Cl)c1c32 (stereo not given)
- Control [6]: 100%
- Control [7]: 115%

SMILES: CN(C)C1CCN2c3ccccc3Sc3cccc1c32 (stereo not given)
- Control [6]: 93%
- Control [10]: 95%

The next lines start with results.

- IC50 [1]: 1.4e-06 µM
SMILES: CN(C)CC1Cc2cccc3c2N(C1)c1ccccc1S3 (stereo not given)
- Control [2]: 107%
- Control [3]: 90%

- IC50 [1]: 1.2 µM
SMILES: CN(C)CC1Cc2c(Cl)ccc3c2N(C1)c1ccccc1S3 (stereo not given)
- Control [8]: 118%
- Control [9]: 157%

- IC50 [1]: 13 µM
SMILES: CN(C)CC1Cc2cccc3c2N(C1)c1cc(Cl)ccc1S3 (stereo not given)
- Control [11]: 89%
- Control [12]: 70%
